# According to US20230167103A1 (Bayer Aktiengesellschaft, priority 2020, published 2023):
# Target: T1, human DGKζ (Homo sapiens, UniProt Q13574)
# T1 construct: made in house; host or cells: Sf9 insect cells, baculovirus
# Assay: Human DGKζ kinase activity inhibition assay (ADP-Glo)
# Type: biochemical
# Conditions: example compounds; recombinant full-length human DGKζ, 1,2-dioleoyl-sn-glycerol 7 μM, ATP 55 μM, 20 min at 22° C.; read-out: IC50 values of examples in in vitro human DGKζ kinase activity inhibition assays
# Experimental: Human diacylglycerol kinase zeta (DGKζ) inhibitory activity of compounds of the present invention was quantified employing the human DGKζ kinase activity assay as described in the following paragraphs. In essence, the enzyme activity was measured by quantification of the adenosine-di-phosphate (ADP) generated as a co-product of the enzyme reaction via the “ADP-Glo™ Kinase Assay” kit from the company Promega. This detection system works as follows: In a first step the adenosine-tri-phosphate (ATP) not consumed in the kinase reaction is quantitatively converted to cyclic adenosine-mono-phosphate (cAMP) employing an adenylate cyclase (“ADP-Glo-reagent”), then the adenylate cyclase is stopped and the ADP generated in the kinase reaction is converted to ATP, which subsequently generates in a luciferase-based reaction a glow-luminescence signal (“Kinase Detection Reagent”).
# C-terminally FLAG-tagged, recombinant full-length human DGKζ (inhouse expressed in baculovirus infected insect cells, purified using anti-Flag pulldown and size exclusion chromatography) was used as enzyme. As an alternative, commercially available enzyme by Carnabio can be used. As substrate for the kinase, 1,2-dioleoyl-sn-glycerol, reconstituted in octyl-β-D-glucopyranoside micelles, was used. […] Subsequently, 22.55 volumes of a 510 mM solution of octyl-β-D-glucopyranoside (Sigma-Aldrich, Cat. #O8001-10G) in 50 mM MOPS buffer (pH 7.4) were added, and the mixture was sonicated in an ultrasonic bath for 20 s. Then 35 volumes of 50 mM MOPS buffer (pH 7.4) were added to yield a solution of 0.28 mM 1,2 dioleoyl-sn-glycerol and 200 mM octyl-β-D-glucopyranoside, which was aliquoted, flash-frozen in liquid nitrogen, and stored at −20° C. until use.
# For the assay 50 nl of a 100-fold concentrated solution of the test compound in dimethyl sulfoxide (DMSO, Sigma) was pipetted into either a white 1536-well or a white low-volume 384-well microtiter plate (both Greiner Bio-One, Frickenhausen, Germany). […] The concentration of DGKζ was adjusted depending of the activity of the enzyme lot and was chosen appropriate to have the assay in the linear range, a typical concentration is about 0.1 nM. The reaction was stopped by the addition of 2.5 μL of “ADP-Glo-reagent” (1 to 1.5 diluted with water) and the resulting mixture was incubated at 22° C. for 1 h to convert the ATP not consumed in the kinase reaction completely to cAMP. Subsequently 2.5 μl of the “kinase detection reagent” (1.2 fold more concentrated than recommended by the producer) were added, the resulting mixture was incubated at 22° C. for 1 h and then the luminescence measured with a suitable measurement instrument (e.g. Viewlux™ from Perkin-Elmer). The amount of emitted light was taken as a measure for the amount of ADP generated and thereby for the activity of the DGKζ.
# The data were normalised (enzyme reaction without inhibitor=0% inhibition, all other assay components but no enzyme=100% inhibition).
# T1 sequence (Q13574 with tags, fused parts or gaps): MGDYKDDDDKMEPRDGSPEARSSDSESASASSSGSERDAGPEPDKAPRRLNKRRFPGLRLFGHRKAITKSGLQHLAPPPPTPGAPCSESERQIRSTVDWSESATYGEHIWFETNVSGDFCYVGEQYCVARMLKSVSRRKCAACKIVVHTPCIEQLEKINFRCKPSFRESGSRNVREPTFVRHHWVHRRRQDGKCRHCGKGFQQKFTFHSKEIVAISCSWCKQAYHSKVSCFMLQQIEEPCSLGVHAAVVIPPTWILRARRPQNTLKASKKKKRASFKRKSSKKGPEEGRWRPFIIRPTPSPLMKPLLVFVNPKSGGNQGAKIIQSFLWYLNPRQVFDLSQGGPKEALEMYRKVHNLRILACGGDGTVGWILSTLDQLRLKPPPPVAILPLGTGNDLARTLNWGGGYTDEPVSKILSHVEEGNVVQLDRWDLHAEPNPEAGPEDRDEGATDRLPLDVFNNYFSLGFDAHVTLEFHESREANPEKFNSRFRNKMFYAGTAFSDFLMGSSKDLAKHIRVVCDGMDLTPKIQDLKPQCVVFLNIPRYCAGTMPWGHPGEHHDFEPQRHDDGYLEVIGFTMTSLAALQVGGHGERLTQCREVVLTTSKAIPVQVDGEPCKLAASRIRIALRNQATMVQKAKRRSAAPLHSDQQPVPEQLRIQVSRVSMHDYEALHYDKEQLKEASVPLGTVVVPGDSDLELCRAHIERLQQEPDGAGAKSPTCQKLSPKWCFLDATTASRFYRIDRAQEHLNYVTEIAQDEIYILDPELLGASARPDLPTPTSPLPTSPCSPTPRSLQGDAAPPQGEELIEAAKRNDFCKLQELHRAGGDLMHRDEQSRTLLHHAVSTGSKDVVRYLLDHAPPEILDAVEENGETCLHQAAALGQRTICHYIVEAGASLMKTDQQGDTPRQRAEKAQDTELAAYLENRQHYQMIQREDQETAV
row,Molecule,IC50 [µM]
1,"CC(C(N)=O)N(c1ccc(F)cc1)c1nc(N)c(C(=O)c2cc(C(=O)N3CCCCC3)no2)s1 (racemic) [Example 27, rac-2-(N-[4-amino-5-[3-(piperidine-1-carbonyl)isoxazole-5-carbonyl]thiazol-2-yl]-4-fluoro-anilino)propanamide]",0.148
2,"CC(C(N)=O)N(c1ccc(F)cc1)c1nc(N)c(C(=O)c2cc(C(=O)NC3(C)CCC3)no2)s1 (single isomer, unassigned) [Example 30.2, 5-[4-amino-2-(N-(2-amino-1-methyl-2-oxo-ethyl)-4-fluoro-anilino)thiazole-5-carbonyl]-N-(1-methylcyclobutyl)isoxazole-3-carboxamide]",13.4
3,"COCC(C)NC(=O)c1cc(C(=O)c2sc(N(c3ccc(F)cc3)C(C)C(N)=O)nc2N)on1 (racemic) [Example 36, 5-[4-amino-2-(N-(2-amino-1-methyl-2-oxo-ethyl)-4-fluoro-anilino)thiazole-5-carbonyl]-N-(2-methoxy-1-methyl-ethyl)isoxazole-3-carboxamide]",0.446
4,"CC(C(N)=O)N(c1ccc(F)cc1)c1nc(N)c(C(=O)c2cc(Br)no2)s1 (single isomer, unassigned) [Example 6.1, 2-(N-[4-amino-5-(3-bromoisoxazole-5-carbonyl)thiazol-2-yl]-4-fluoro-anilino)propanamide]",0.064
5,"CC(C(N)=O)N(c1ccc(F)cc1)c1nc(N)c(C(=O)c2cc(OC3CCC3)no2)s1 (racemic) [Example 79, rac-2-(N-[4-amino-5-[3-(cyclobutoxy)isoxazole-5-carbonyl]thiazol-2-yl]-4-fluoro-anilino)propanamide]",0.088
6,"CC(C(N)=O)N(c1ccc(F)cc1)c1nc(N)c(C(=O)c2cc(C(=O)NC3(C)CCC3)no2)s1 (racemic) [Example 30, rac-5-[4-amino-2-(N-(2-amino-1-methyl-2-oxo-ethyl)-4-fluoro-anilino)thiazole-5-carbonyl]-N-(1-methylcyclobutyl)isoxazole-3-carboxamide]",0.088
7,"CC(C(N)=O)N(c1ccc(F)cc1)c1nc(N)c(C(=O)c2cc(C(=O)NC3(C)CCCC3)no2)s1 (racemic) [Example 39, rac-5-[4-amino-2-(N-(2-amino-1-methyl-2-oxo-ethyl)-4-fluoro-anilino)thiazole-5-carbonyl]-N-(1-methylcyclopentyl)isoxazole-3-carboxamide]",0.053
8,"CC(C(N)=O)N(c1ccc(F)cc1)c1nc(N)c(C(=O)c2cc(C(=O)NC(CF)CF)no2)s1 (racemic) [Example 40, rac-5-[4-amino-2-(N-(2-amino-1-methyl-2-oxo-ethyl)-4-fluoro-anilino)thiazole-5-carbonyl]-N-[2-fluoro-1-(fluoromethyl)ethyl]isoxazole-3-carboxamide]",0.204
9,"CC(C(N)=O)N(c1ccc(F)cc1)c1nc(N)c(C(=O)c2cc(C(=O)Nc3ccccc3)no2)s1 (racemic) [Example 10, rac-5-[4-amino-2-(N-(2-amino-1-methyl-2-oxo-ethyl)-4-fluoro-anilino)thiazole-5-carbonyl]-N-phenyl-isoxazole-3-carboxamide]",0.023
10,"CC(C(N)=O)N(c1ccc(F)cc1)c1nc(N)c(C(=O)c2cc(-c3ccc(Cl)cc3Cl)no2)s1 (racemic) [Example 4, rac-2-(N-[4-amino-5-[3-(2,4-dichlorophenyl)isoxazole-5-carbonyl]thiazol-2-yl]-4-fluoro-anilino)propanamide]",0.037
11,"CC(C(N)=O)N(c1ccc(F)c(F)c1)c1nc(N)c(C(=O)c2cc(C(=O)NC3(C)CCC3)no2)s1 (single isomer, unassigned) [Example 44.2, 5-[4-amino-2-(N-(2-amino-1-methyl-2-oxo-ethyl)-3,4-difluoro-anilino)thiazole-5-carbonyl]-N-(1-methylcyclobutyl)isoxazole-3-carboxamide]",4.51

# Continued, values first:
row,IC50 [µM],Molecule
1,0.751,"CC(C(N)=O)N(c1ccc(F)cc1)c1nc(N)c(C(=O)c2cc(CO)no2)s1 (racemic) [Example 65, rac-2-(N-[4-amino-5-[3-(hydroxymethyl)isoxazole-5-carbonyl]thiazol-2-yl]-4-fluoro-anilino)propanamide]"
2,0.306,"CC(C(N)=O)N(c1ccc(F)cc1)c1nc(N)c(C(=O)c2nc(-c3ccccn3)no2)s1 (racemic) [Example 54, rac-2-(N-[4-amino-5-[3-(2-pyridyl)-1,2,4-oxadiazole-5-carbonyl]thiazol-2-yl]-4-fluoro-anilino)propanamide]"
3,0.113,"CC(C(N)=O)N(c1ccc(F)cc1)c1nc(N)c(C(=O)c2cc(CN3CC(F)(F)C3)no2)s1 (racemic) [Example 74, rac-2-(N-[4-amino-5-[3-[(3,3-difluoroazetidin-1-yl)methyl]isoxazole-5-carbonyl]thiazol-2-yl]-4-fluoro-anilino)propanamide]"
4,0.032,"CC(C(N)=O)N(c1ccc(F)cc1)c1nc(N)c(C(=O)c2cc(COc3ccc(C#N)cc3)no2)s1 (racemic) [Example 64, rac-2-(N-[4-amino-5-[3-[(4-cyanophenoxy)methyl]isoxazole-5-carbonyl]thiazol-2-yl]-4-fluoro-anilino)propanamide]"
5,0.042,"CC(C(N)=O)N(c1ccc(F)cc1)c1nc(N)c(C(=O)c2cc(C3CCCC3)no2)s1 (racemic) [Example 47, rac-2-(N-[4-amino-5-(3-cyclopentylisoxazole-5-carbonyl)thiazol-2-yl]-4-fluoro-anilino)propanamide]"
6,0.117,"CC(C(N)=O)N(c1ccc(F)cc1)c1nc(N)c(C(=O)c2cc(-c3ccc(OC(F)(F)F)cc3)no2)s1 (racemic) [Example 69, rac-2-(N-[4-amino-5-[3-[4-(trifluoromethoxy)phenyl]isoxazole-5-carbonyl]thiazol-2-yl]-4-fluoro-anilino)propanamide]"
7,0.027,"COc1ccccc1-c1cc(C(=O)c2sc(N(c3ccc(F)cc3)C(C)C(N)=O)nc2N)on1 (racemic) [Example 70, rac-2-(N-[4-amino-5-[3-(2-methoxyphenyl)isoxazole-5-carbonyl]thiazol-2-yl]-4-fluoro-anilino)propanamide]"
8,0.012,"CC(C(N)=O)N(c1ccc(F)cc1)c1nc(N)c(C(=O)c2nc(C3CCCC3)no2)s1 (racemic) [Example 59, rac-2-(N-[4-amino-5-(3-cyclopentyl-1,2,4-oxadiazole-5-carbonyl)thiazol-2-yl]-4-fluoro-anilino)propanamide]"
9,0.096,"COc1ccc(-c2cc(C(=O)c3sc(N(c4ccc(F)cc4)C(C)C(N)=O)nc3N)on2)cn1 (racemic) [Example 71, rac-2-(N-[4-amino-5-[3-(6-methoxy-3-pyridyl))isoxazole-5-carbonyl]thiazol-2-yl]-4-fluoro-anilino)propanamide]"
10,1.27,"CC(C(N)=O)N(c1ccc(F)c(F)c1)c1nc(N)c(C(=O)c2cc(C(=O)NC3CC(F)(F)C3)no2)s1 (single isomer, unassigned) [Example 45.2, 5-[4-amino-2-(N-(2-amino-1-methyl-2-oxo-ethyl)-3,4-difluoro-anilino)thiazole-5-carbonyl]-N-(3,3-difluorocyclobutyl)isoxazole-3-carboxamide]"
11,0.098,"CC(C(N)=O)N(c1ccc(F)cc1)c1nc(N)c(C(=O)c2cc(CNC3(C)CCCC3)no2)s1 (racemic) [Example 61, rac-2-(Np[4-amino-5-[3-[[(1-methylcyclopentyl)amino]methyl]isoxazole-5-carbonyl]thiazol-2-yl]-4-fluoro-anilino)propanamide]"
12,0.017,"CC(C(N)=O)N(c1ccc(F)cc1)c1nc(N)c(C(=O)c2nc(-c3ccccc3)no2)s1 (racemic) [Example 51, rac-2-(N-[4-amino-5-(3-phenyl-1,2,4-oxadiazole-5-carbonyl)thiazol-2-yl]-4-fluoro-anilino) propanamide]"

# Same assay, conditions: intermediates (comparative, lacking the R2 alkyl-carboxamide group); same assay conditions; read-out: IC50 values of intermediates in in vitro human DGKζ kinase activity inhibition assays
row,IC50 [µM],Molecule
1,12,rac-5-[4-amino-2-(N-(2-amino-1-methyl-2-oxo-ethyl)-4-fluoro-anilino)thiazole-5-carbonyl]-N-(1-methylcyclobutyl)isoxazole-3-carboxamide [Example 30]
